According to PubChem BioAssay (NCI):
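Briefly, cells in 96-well plates were exposed to five compound concentrations for 48 h, and endpoints were estimated by linear interpolation. Abbreviation: GI50, concentration required for 50% inhibition of growth. TGI denotes the concentration required for complete inhibition of growth.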

What was measured:
Experiment in all cases: NCI tumour cell line growth inhibition, 48 h
A498 renal = system: A498 renal
DLD-1 colon = system: DLD-1 colon
DMS 114 small cell lung = system: DMS 114 small cell lung
DMS 273 small cell lung = system: DMS 273 small cell lung
HOP-18 NSCLC = system: HOP-18 NSCLC
KM20L2 colon = system: KM20L2 colon
M19-MEL melanoma = system: M19-MEL melanoma
P388 leukemia = system: P388 leukemia
P388/ADR leukemia = system: P388/ADR leukemia
SNB-78 CNS = system: SNB-78 CNS
XF 498 CNS = system: XF 498 CNS
ACHN renal = system: ACHN renal
PC-3 prostate = system: PC-3 prostate
DU-145 prostate = system: DU-145 prostate
MDA-MB-231 breast = system: MDA-MB-231 breast
MDA-N = system: MDA-N
T-47D breast = system: T-47D breast

## Nc1ccc(N=Nc2ccc(/C=C/c3ccc(N=Nc4ccc(N)c5ccc(S(=O)(=O)O)cc45)cc3S(=O)(=O)O)c(S(=O)(=O)O)c2)c2cc(S(=O)(=O)O)ccc12
A498 renal
  TGI: > 100 µM
DLD-1 colon
  TGI: > 100 µM
DMS 114 small cell lung
  TGI: > 100 µM
DMS 273 small cell lung
  TGI: > 100 µM
HOP-18 NSCLC
  TGI: > 100 µM
KM20L2 colon
  TGI: > 100 µM
M19-MEL melanoma
  TGI: > 100 µM
P388 leukemia
  TGI: > 100 µM
P388/ADR leukemia
  TGI: > 100 µM
SNB-78 CNS
  TGI: > 100 µM
XF 498 CNS
  TGI: > 100 µM

## O=c1c2cc(I)ccc2nc(-c2cccs2)n1Nc1ccccc1
ACHN renal
  TGI: > 100 µM
PC-3 prostate
  TGI: > 100 µM

## CC1CN=C(NCc2ccccc2)S1 (stereo not given)
A498 renal
  TGI: > 100 µM
ACHN renal
  TGI: > 100 µM
DU-145 prostate
  TGI: > 100 µM
MDA-MB-231 breast
  TGI: > 100 µM
MDA-N
  TGI: > 100 µM
T-47D breast
  TGI: > 100 µM

## COc1cc(/C=C2\CCCC3=C2NC(N)=NC3c2cc(OC)c(OC)c(OC)c2)cc(OC)c1OC (stereo not given)
DU-145 prostate
  GI50: 3.36 µM
  TGI: > 100 µM
MDA-MB-231 breast
  GI50: 3.87 µM
  TGI: > 100 µM
PC-3 prostate
  GI50: 1.93 µM
  TGI: > 100 µM
